Reference: BindingDB's records for doi:10.1016/0960-894X(95)00040-Z (1995)
pIC50: −log10 of the molar value.

Test: Compound was tested for inhibitory activity against prostaglandin synthetase in mouse brain microsomes

C1=C(CCN2CCOCC2)c2ccccc2/C1=C/c1ccccc1 [4-(2-{3-[1-Phenyl-meth-(E)-ylidene]-3H-inden-1-yl}-ethyl)-morpholine]
pIC50: 4.70
